Key:
Assay in all cases: relative viability (nuclei count vs DMSO), 5 days (fraction); higher = more cells survive
[1] = test system: EKVX
In short: (§1)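 Relative viability equals treated-well nuclei counts divided by vehicle-well nuclei counts. Counts came from 4× images of lung cancer cell lines grown in 1536-well plates for 5 days after pin-tool dosing on the day after seeding. Dosing used one drug alone or a fixed anchor-drug dose plus five library-drug doses (not always all listed) in √10 steps, and values are medians of duplicate plates.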

[2] = test system: NCI-H1437
In short: as §1

[3] = test system: NCI-H2170
In short: as §1

[4] = test system: SW 900
In short: as §1

[5] = test system: 201T
In short: as §1

[6] = test system: NCI-H460
In short: as §1

[7] = test system: HCC-366
In short: as §1

[8] = test system: NCI-H441
In short: as §1

[9] = test system: NCI-H727
In short: as §1

[10] = test system: LK-2
In short: as §1

[11] = test system: HARA
In short: as §1

[12] = test system: NCI-H3122
In short: as §1

[13] = test system: PC-14
In short: as §1

[14] = test system: CAL-12T
In short: as §1

[15] = test system: NCI-H1666
In short: as §1

[16] = test system: ABC-1
In short: as §1

[17] = test system: LOU-NH91
In short: as §1

[18] = test system: BEN
In short: as §1

## COc1cc2nccc(Oc3ccc(NC(=O)Nc4cc(C)on4)c(Cl)c3)c2cc1OC [Tivozanib] + NC(=O)Nc1cc(-c2cccc(F)c2)sc1C(=O)N[C@H]1CCCNC1 [AZD7762] (partner 0.2 µM)
[1]; first compound 0.005 µM
  relative viability: 0.592
[1]; first compound 0.01581 µM
  relative viability: 0.695
[1]; first compound 0.05 µM
  relative viability: 0.76
[1]; first compound 0.1581 µM
  relative viability: 0.69
[1]; first compound 0.5 µM
  relative viability: 0.689
[2]; first compound 0.005 µM
  relative viability: 1.12
[2]; first compound 0.01581 µM
  relative viability: 1.16
[2]; first compound 0.05 µM
  relative viability: 1.07
[2]; first compound 0.1581 µM
  relative viability: 1.17
[2]; first compound 0.5 µM
  relative viability: 1.04
[3]; first compound 0.005 µM
  relative viability: 0.689
[3]; first compound 0.01581 µM
  relative viability: 0.785
[3]; first compound 0.05 µM
  relative viability: 0.809
[3]; first compound 0.5 µM
  relative viability: 0.856
[4]; first compound 0.005 µM
  relative viability: 0.649
[4]; first compound 0.01581 µM
  relative viability: 0.636
[4]; first compound 0.05 µM
  relative viability: 0.675
[4]; first compound 0.5 µM
  relative viability: 0.547
[5]; first compound 0.005 µM
  relative viability: 0.599
[5]; first compound 0.01581 µM
  relative viability: 0.575
[5]; first compound 0.05 µM
  relative viability: 0.659
[5]; first compound 0.1581 µM
  relative viability: 0.595
[5]; first compound 0.5 µM
  relative viability: 0.601
[6]; first compound 0.005 µM
  relative viability: 0.533
[6]; first compound 0.01581 µM
  relative viability: 0.689
[6]; first compound 0.05 µM
  relative viability: 0.651
[6]; first compound 0.1581 µM
  relative viability: 0.566
[6]; first compound 0.5 µM
  relative viability: 0.471
[7]; first compound 0.005 µM
  relative viability: 0.333
[7]; first compound 0.01581 µM
  relative viability: 0.245
[7]; first compound 0.05 µM
  relative viability: 0.35
[7]; first compound 0.1581 µM
  relative viability: 0.362
[7]; first compound 0.5 µM
  relative viability: 0.25
[8]; first compound 0.005 µM
  relative viability: 1.05
[8]; first compound 0.01581 µM
  relative viability: 0.935
[8]; first compound 0.05 µM
  relative viability: 1.28
[8]; first compound 0.1581 µM
  relative viability: 1.35
[8]; first compound 0.5 µM
  relative viability: 1.08
[9]; first compound 0.005 µM
  relative viability: 0.548
[9]; first compound 0.01581 µM
  relative viability: 0.657
[9]; first compound 0.05 µM
  relative viability: 0.408
[9]; first compound 0.1581 µM
  relative viability: 0.442
[9]; first compound 0.5 µM
  relative viability: 0.697
[10]; first compound 0.005 µM
  relative viability: 0.512
[10]; first compound 0.01581 µM
  relative viability: 0.278
[10]; first compound 0.05 µM
  relative viability: 0.494
[10]; first compound 0.1581 µM
  relative viability: 0.252
[10]; first compound 0.5 µM
  relative viability: 0.357
[11]; first compound 0.005 µM
  relative viability: 0.268
[11]; first compound 0.01581 µM
  relative viability: 0.335
[11]; first compound 0.05 µM
  relative viability: 0.424
[11]; first compound 0.1581 µM
  relative viability: 0.231
[11]; first compound 0.5 µM
  relative viability: 0.267
[12]; first compound 0.005 µM
  relative viability: 0.97
[12]; first compound 0.01581 µM
  relative viability: 0.876
[12]; first compound 0.05 µM
  relative viability: 0.974
[12]; first compound 0.1581 µM
  relative viability: 1.02
[12]; first compound 0.5 µM
  relative viability: 1.02
[13]; first compound 0.005 µM
  relative viability: 0.333
[13]; first compound 0.01581 µM
  relative viability: 0.338
[13]; first compound 0.05 µM
  relative viability: 0.369
[13]; first compound 0.1581 µM
  relative viability: 0.385
[13]; first compound 0.5 µM
  relative viability: 0.375
[14]; first compound 0.005 µM
  relative viability: 0.483
[14]; first compound 0.01581 µM
  relative viability: 0.584
[14]; first compound 0.05 µM
  relative viability: 0.668
[14]; first compound 0.1581 µM
  relative viability: 0.722
[14]; first compound 0.5 µM
  relative viability: 0.71
[15]; first compound 0.005 µM
  relative viability: 0.784
[15]; first compound 0.01581 µM
  relative viability: 0.761
[15]; first compound 0.05 µM
  relative viability: 0.956
[15]; first compound 0.1581 µM
  relative viability: 0.82
[15]; first compound 0.5 µM
  relative viability: 0.845
[16]; first compound 0.005 µM
  relative viability: 1.05
[16]; first compound 0.01581 µM
  relative viability: 0.865
[16]; first compound 0.05 µM
  relative viability: 0.895
[16]; first compound 0.1581 µM
  relative viability: 1.12
[16]; first compound 0.5 µM
  relative viability: 0.785
[17]; first compound 0.005 µM
  relative viability: 0.712
[17]; first compound 0.01581 µM
  relative viability: 0.77
[17]; first compound 0.05 µM
  relative viability: 0.753
[17]; first compound 0.1581 µM
  relative viability: 0.734
[17]; first compound 0.5 µM
  relative viability: 0.701
[18]; first compound 0.005 µM
  relative viability: 0.6
[18]; first compound 0.01581 µM
  relative viability: 0.712
[18]; first compound 0.05 µM
  relative viability: 0.869
[18]; first compound 0.1581 µM
  relative viability: 0.375
[18]; first compound 0.5 µM
  relative viability: 0.737

— the supplement of paper PMC10307832
